Results on 9 compounds are retold here after PubChem BioAssay (NCI).

Among the test systems are MOLT-4 leukemia; MDA-N; RXF 393 renal; SF-295 CNS; UACC-62 melanoma; OVCAR-5 ovarian; OVCAR-8 ovarian; BT-549 breast; SK-OV-3 ovarian; MDA-MB-231 breast; HOP-92 NSCLC; SK-MEL-5 melanoma; EKVX NSCLC; T-47D breast; SW-620 colon.
Assay in all cases: inhibition of tumour cell growth, NCI panel, 48 h

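Briefly, cells in 96-well plates were exposed to five compound concentrations for 48 h, and endpoints were estimated by linear interpolation. The concentration for full growth arrest is given as TGI.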 Where only a bound is given, the exact number is not on record here.

Regarding `CCN(CC)CCN1CCN=c2c3cc(OC)ccc3n3cnc4ccc1c2c43`, the TGI is 0.999 µM with MOLT-4 leukemia; 1.79 µM with MDA-N; 1.52 µM in the experiment on RXF 393 renal; 2.32 µM in the experiment with SF-295 CNS; 7.3 µM in the experiment with UACC-62 melanoma; 5.77 µM in the experiment with OVCAR-5 ovarian. For the same compound, the TGI with OVCAR-8 ovarian came to 2.26 µM; in the experiment on BT-549 breast, 3.26 µM; with SK-OV-3 ovarian it was 5.16 µM; in the experiment with MDA-MB-231 breast it was 2.33 µM; in the experiment with HOP-92 NSCLC it was 4.42 µM; with SK-MEL-5 melanoma, 3.27 µM. In addition, the TGI in the experiment on EKVX NSCLC is 3.21 µM; in the experiment on T-47D breast, 23.3 µM; with SW-620 colon, 1.82 µM.
As to `C=CCNC(NCC=C)=C(C(Cl)=C(Cl)Cl)[N+](=O)[O-]`, the TGI in the experiment with MOLT-4 leukemia was 87.9 µM; with MDA-N, greater than 100 µM; in the experiment on SF-295 CNS, greater than 100 µM; with UACC-62 melanoma, greater than 100 µM; in the experiment with OVCAR-5 ovarian it was greater than 100 µM; in the experiment on OVCAR-8 ovarian it was 31.2 µM. Besides, the TGI is 83.4 µM with BT-549 breast; greater than 100 µM in the experiment with SK-OV-3 ovarian; greater than 100 µM with MDA-MB-231 breast; greater than 100 µM with EKVX NSCLC; greater than 100 µM with T-47D breast; 55.7 µM with SW-620 colon.
As to `O=c1c2cc([N+](=O)[O-])cnc2sn1-c1ccc(Oc2ccccc2)cc1`, the TGI with MOLT-4 leukemia, in the experiment with MDA-N, in the experiment with SF-295 CNS, with UACC-62 melanoma, in the experiment on OVCAR-5 ovarian and in the experiment on OVCAR-8 ovarian was greater than 100 µM throughout. In addition, the TGI with BT-549 breast is greater than 100 µM; with SK-OV-3 ovarian, 87.5 µM; in the experiment with MDA-MB-231 breast, 90.7 µM; in the experiment on HOP-92 NSCLC it was 90.2 µM; in the experiment on SK-MEL-5 melanoma it was greater than 100 µM; in the experiment on EKVX NSCLC, greater than 100 µM. The results for the TGI with T-47D breast and in the experiment with SW-620 colon were 56.6 µM and greater than 100 µM, respectively.
With `COc1c(C(CC(C)C)OC(C)=O)ccc2c1C(=O)OCc1cc(C)cc(O)c1O2` (centres undefined), the TGI was greater than 100 µM in the experiment on MOLT-4 leukemia; 29.9 µM in the experiment with MDA-N; 34 µM in the experiment with RXF 393 renal; 27.8 µM with SF-295 CNS; 25.5 µM in the experiment on UACC-62 melanoma; 28.4 µM with OVCAR-5 ovarian. The TGI was determined as 33.1 µM in the experiment on OVCAR-8 ovarian; 30 µM with BT-549 breast; 31 µM in the experiment with SK-OV-3 ovarian; 24.5 µM in the experiment on HOP-92 NSCLC; 23.2 µM with SK-MEL-5 melanoma; 24.1 µM in the experiment on EKVX NSCLC. Besides, the TGI in the experiment on T-47D breast came out at 23.6 µM; in the experiment with SW-620 colon, 31.5 µM.
Take `Clc1cccc(Cl)c1C1SCc2nc3cc4ccccc4cc3n21` (centres undefined): the TGI in the experiment on MOLT-4 leukemia, with MDA-N, with RXF 393 renal, in the experiment on SF-295 CNS, with UACC-62 melanoma and with OVCAR-5 ovarian was greater than 100 µM throughout. Also, the TGI with OVCAR-8 ovarian, with BT-549 breast, in the experiment on SK-OV-3 ovarian, with MDA-MB-231 breast, in the experiment on SK-MEL-5 melanoma and with EKVX NSCLC was greater than 100 µM throughout. In addition, the TGI in the experiment on T-47D breast and in the experiment with SW-620 colon was greater than 100 µM each time.
On to `c1ccc2c(c1)n1c(N3CCOCC3)[n+]3ccccc3c1c1c3cccc[n+]3c(N3CCOCC3)n21`, for which the TGI in the experiment on MOLT-4 leukemia, in the experiment on MDA-N, in the experiment with RXF 393 renal, in the experiment with SF-295 CNS, with UACC-62 melanoma and in the experiment on OVCAR-5 ovarian was greater than 100 µM in each case. Also, the TGI with OVCAR-8 ovarian, in the experiment with BT-549 breast, with MDA-MB-231 breast, in the experiment with HOP-92 NSCLC, in the experiment on SK-MEL-5 melanoma and in the experiment on EKVX NSCLC was greater than 100 µM throughout. The TGI in the experiment with T-47D breast and in the experiment on SW-620 colon was greater than 100 µM in each case.
Take `COc1ccc(OC)c2c(=O)cc(-c3ccccc3)[nH]c12`: the TGI with MOLT-4 leukemia, in the experiment with MDA-N, in the experiment on RXF 393 renal, in the experiment with SF-295 CNS, in the experiment with UACC-62 melanoma and in the experiment on OVCAR-5 ovarian was greater than 100 µM throughout. Further, the TGI with OVCAR-8 ovarian, with BT-549 breast, in the experiment with SK-OV-3 ovarian, in the experiment with MDA-MB-231 breast, with EKVX NSCLC and in the experiment with T-47D breast was greater than 100 µM in each case. Moreover, in the experiment on SW-620 colon, the TGI is greater than 100 µM.
With `CC1=C(C(=O)OC23CC4CC(CC(C4)C2)C3)C(c2ccccc2OC(F)F)C(C(=O)OC23CC4CC(CC(C4)C2)C3)=C(C)N1` (centres undefined), the TGI with MOLT-4 leukemia, in the experiment on MDA-N, with RXF 393 renal, with SF-295 CNS, in the experiment on UACC-62 melanoma and in the experiment on OVCAR-5 ovarian was greater than 100 µM throughout. Moreover, the TGI in the experiment on OVCAR-8 ovarian, in the experiment with BT-549 breast, in the experiment on SK-OV-3 ovarian, with MDA-MB-231 breast, in the experiment on HOP-92 NSCLC and with SK-MEL-5 melanoma was greater than 100 µM throughout. In addition, the TGI in the experiment on T-47D breast and with SW-620 colon was greater than 100 µM in each case.
Regarding `Cc1cc2c(cc1Cl)SC(NNC(=O)c1ccncc1)=NS2(=O)=O`, the TGI with MOLT-4 leukemia, with MDA-N, in the experiment on RXF 393 renal, in the experiment with SF-295 CNS, in the experiment with UACC-62 melanoma and in the experiment with OVCAR-5 ovarian was greater than 10 µM each time. Besides, the TGI in the experiment on OVCAR-8 ovarian, in the experiment with BT-549 breast, in the experiment on SK-OV-3 ovarian, with MDA-MB-231 breast, with SK-MEL-5 melanoma and in the experiment with EKVX NSCLC was greater than 10 µM in each case. Besides, the TGI with T-47D breast and in the experiment on SW-620 colon was greater than 10 µM in each case.
